Results reported in patent US8394828B2 (Janssen Pharmaceutica, NV, priority 2003, dated 2013).
pIC50, pKi: −log10 of the molar value. Read-outs that look alike come from different tables or passages of the source.

What was measured:
human VR1 [1] = molecular target: T1, human VR1 (Homo sapiens, UniProt Q8NER1); assay: Human VR1 functional assay (intracellular Ca++, FLIPR, capsaicin challenge); format: cell-based
T1 construct: expressed in transfected cells; host or cells: HEK293
Procedure: The functional activity of the test compounds was determined by measuring changes in intracellular calcium concentration using a Ca^++-sensitive fluorescent dye and FLIPR™ technology.
EC50 or IC50 values were determined from dose-response studies.

human VR1 [2] = molecular target: T1, human VR1; assay: Human VR1 [3H] RTX binding assay; settings: 3H-RTX binding; for inhibition at 1 µM: compound at 1 μM; for pKi: hVR1, read-out: 3H-RTX binding assay Ki hVR1
Procedure: Compounds of the present invention were tested for their ability to inhibit the binding of [^3H] RTX to hVR1 receptors in a [^3H]
HEK293 cells were transfected with human VR1 vanilloid receptors and washed with Hank's Balanced Salt Solution, dissociated with cell dissociation buffer (Sigma), and then centrifuged at 1000×g for 5 min. […] The pelleted membranes were kept in an −80° C. freezer.
Approximately 120 μg protein/ml from membranes were incubated with indicated concentrations of [^3H] RTX in 0.5 ml of the HEPES buffer (pH 7.4) containing 0.25 mg/mL fatty acid-free bovine serum albumin at 37° C. for 60 min. […] The tip of the microcentrifuge tube containing the pellet was cut off. Bound radioactivity was quantified by scintillation counting. Non-specific binding was tested in the presence of 200 nM unlabeled RTX.

[3] = FLIPR functional assay IC50 hVR1 60 min, 60 min
[4] = hVR1, capsaicin challenge, read-out: FLIPR functional assay IC50 hVR1

T1 sequence (Q8NER1 whole entry): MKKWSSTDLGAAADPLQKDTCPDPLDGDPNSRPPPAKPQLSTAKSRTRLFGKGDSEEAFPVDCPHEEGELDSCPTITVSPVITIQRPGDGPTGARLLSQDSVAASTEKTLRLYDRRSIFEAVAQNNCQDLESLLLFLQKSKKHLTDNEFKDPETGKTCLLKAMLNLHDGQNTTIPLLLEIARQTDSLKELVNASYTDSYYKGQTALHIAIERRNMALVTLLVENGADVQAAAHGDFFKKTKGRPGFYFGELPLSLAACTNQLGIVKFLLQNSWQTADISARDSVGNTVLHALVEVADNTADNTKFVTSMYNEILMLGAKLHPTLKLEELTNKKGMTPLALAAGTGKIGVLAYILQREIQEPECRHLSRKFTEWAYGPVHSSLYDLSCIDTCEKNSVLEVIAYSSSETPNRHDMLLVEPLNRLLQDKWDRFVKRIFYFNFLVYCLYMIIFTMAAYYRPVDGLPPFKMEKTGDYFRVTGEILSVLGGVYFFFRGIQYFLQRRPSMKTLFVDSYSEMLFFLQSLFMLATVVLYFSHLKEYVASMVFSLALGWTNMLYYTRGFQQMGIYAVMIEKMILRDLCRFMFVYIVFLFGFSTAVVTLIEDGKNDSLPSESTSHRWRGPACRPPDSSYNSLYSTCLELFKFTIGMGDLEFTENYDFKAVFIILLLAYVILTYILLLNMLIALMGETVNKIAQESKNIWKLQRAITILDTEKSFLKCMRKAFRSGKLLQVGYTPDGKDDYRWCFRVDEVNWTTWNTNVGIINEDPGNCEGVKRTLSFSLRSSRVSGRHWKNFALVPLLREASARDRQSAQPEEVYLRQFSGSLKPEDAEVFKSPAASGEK

pIC50 (human VR1 [1]; [3])	pIC50 (human VR1 [1]; [4])	inhibition at 1 µM (human VR1 [2])	pKi (human VR1 [2])	Structure (SMILES)
5.89	5.00	99%	7.68	CN(CCC(C)(C)C)c1ccc(C(=O)Nc2cnc3ccccc3c2)cc1 [4-{(3,3-Dimethyl-butyl)-methyl-amino}-N-quinolin-3-yl-benzamide]
	5.49	1%		O=C(Nc1cnc2ccccc2c1)c1cccc(NC2CCCCC2)c1 [3-Cyclohexylamino-N-quinolin-3-yl-benzamide]
	6.30	72%	6.58	CCCCCN(C)c1cccc(C(=O)Nc2cnc3ccccc3c2)c1 [3-(Methyl-pentyl-amino)-N-quinolin-3-yl-benzamide]
	5.74	2%		CCCC(=O)N1CCc2cc(C(=O)Nc3cnc4ccccc4c3)ccc21 [1-Butyryl-2,3-dihydro-1H-indole-5-carboxylic acid quinolin-3-ylamide]
	5.00	82%	6.66	CCCCC(C)(C)c1ccc(CCCC(=O)Nc2cnc3ccccc3c2)cc1 [4-{4-(1,1-Dimethyl-pentyl)-phenyl}-N-quinolin-3-yl-butyramide]
	5.55	36%		O=C(Nc1cnc2ccccc2c1)c1cc2cc(Cl)ccc2[nH]1 [5-Chloro-1H-indole-2-carboxylic acid quinolin-3-ylamide]
	6.36	100%	7.59	O=C(Nc1cnc2ccccc2c1)c1ccc(N2CCC(Cc3ccccc3)CC2)nc1 [4-Benzyl-3,4,5,6-tetrahydro-2H-{1,2′}bipyridinyl-5′-carboxylic acid quinolin-3-ylamide]
5.28			6.37	CCCCCc1ccc(C=CC(=O)Nc2cnc3ccccc3c2)cc1 [3-(4-Pentyl-phenyl)-N-quinolin-3-yl-acrylamide]
	6.05	12%		CN1CCc2cc(C(=O)Nc3cnc4ccccc4c3)ccc21 [1-Methyl-2,3-dihydro-1H-indole-5-carboxylic acid quinolin-3-ylamide]
6.66	6.73	105%	7.34	O=C(Nc1cnc2ccccc2c1)c1ccc(N2CC[C@@H]3CCCC[C@@H]3C2)cc1 (relative stereo) [cis-4-(Octahydro-isoquinolin-2-yl)-N-quinolin-3-yl-benzamide]
7.92	6.11	81%	7.13	CCCCCNc1ccc(C(=O)Nc2cnc3ccccc3c2)cc1C [3-Methyl-4-pentylamino-N-quinolin-3-yl-benzamide]
	5.00		7.17	Cc1cc(C(=O)Nc2cnc3ccccc3c2)ccc1N(C)CC1CCCCC1 [4-(Cyclohexylmethyl-methyl-amino)-3-methyl-N-quinolin-3-yl-benzamide]
	6.52		7.90	CCN(c1ccc(C(=O)Nc2cnc3ccccc3c2)cc1)C1CCCCC1 [4-(Cyclohexyl-ethyl-amino)-N-quinolin-3-yl-benzamide]
	6.30		6.71	CCCN(C)c1ccc(CCC(=O)Nc2cnc3ccccc3c2)cc1 [3-{4-(Methyl-propyl-amino)-phenyl}-N-quinolin-3-yl-propionamide]
	6.13	1%		O=C(Nc1cnc2ccccc2c1)c1ccc(N2CCNCC2)cc1 [4-Piperazin-1-yl-N-quinolin-3-yl-benzamide]
6.78	6.21		6.66	CCCN(CCC)c1ccc(C(=O)Nc2cnc3ccccc3c2)cc1 [4-Dipropylamino-N-quinolin-3-yl-benzamide]
6.77	4.80	92%	6.99	CCCC1CCN(c2ccc(C(=O)Nc3cnc4ccccc4c3)cc2)CC1 [4-(4-Propyl-piperidin-1-yl)-N-quinolin-3-yl-benzamide]

pIC50 (human VR1 [1]; [3])	pIC50 (human VR1 [1]; [4])	inhibition at 1 µM (human VR1 [2])	pKi (human VR1 [2])	Structure (SMILES)
	6.16	79%	6.47	CN1CCCc2cc(C(=O)Nc3cnc4ccccc4c3)ccc21 [1-Methyl-1,2,3,4-tetrahydro-quinoline-6-carboxylic acid quinolin-3-ylamide]
5.54		74%	6.73	CCCCCCN(CCCCCC)c1ccc(C(=O)Nc2cnc3ccccc3c2)cc1 [4-Dihexylamino-N-quinolin-3-yl-benzamide]
	5.49	32%		O=C(Nc1cnc2ccccc2c1)c1ccc(NC2CCCC2)cc1 [4-Cyclopentylamino-N-quinolin-3-yl-benzamide]
	6.31	93%	6.93	CCCC1CCN(c2ccc(C(=O)Nc3cnc4ccccc4c3)cn2)CC1 [4-Propyl-3,4,5,6-tetrahydro-2H-{1,2′}bipyridinyl-5′-carboxylic acid quinolin-3-ylamide]
	5.06	82%	6.85	CCCCCCCN(C)c1cccc(C(=O)Nc2cnc3ccccc3c2)c1 [3-(Heptyl-methyl-amino)-N-quinolin-3-yl-benzamide]
	5.00	18%		CC1CN(c2ccc(C(=O)Nc3cnc4ccccc4c3)cc2)CC(C)O1 (stereo not shown) [4-(2,6-Dimethyl-morpholin-4-yl)-N-quinolin-3-yl-benzamide]
7.64	6.25		7.66	Cc1cc(C(=O)Nc2cnc3ccccc3c2)ccc1N(C)C1CCCCC1 [4-(Cyclohexyl-methyl-amino)-3-methyl-N-quinolin-3-yl-benzamide]
6.85	5.37		7.69	O=C(Nc1cnc2ccccc2c1)c1ccc(N2CCCCC2)nc1 [3,4,5,6-Tetrahydro-2H-{1,2′}bipyridinyl-5′-carboxylic acid quinolin-3-ylamide]
	5.00		5.67	CN(C(=O)c1ccc(NC2CCCCC2)cc1)c1cnc2ccccc2c1 [4-Cyclohexylamino-N-methyl-N-quinolin-3-yl-benzamide]
5.30	5.80	79%	5.95	CCCCCCCNc1ccccc1C(=O)Nc1cnc2ccccc2c1 [2-Heptylamino-N-quinolin-3-yl-benzamide]
7.18		104%	7.64	CCCCCC=CCCCN(C)c1ccc(C(=O)Nc2cnc3ccccc3c2)cc1 [4-(Dec-4-enyl-methyl-amino)-N-quinolin-3-yl-benzamide]
	7.04		7.93	O=C(Nc1cnc2ccccc2c1)c1ccc(N2CCCCCCCC2)cc1 [4-Azonan-1-yl-N-quinolin-3-yl-benzamide]
6.57	5.34		6.62	CCCCN(CCCC)c1ccc(C(=O)Nc2cnc3ccccc3c2)cc1 [4-Dibutylamino-N-quinolin-3-yl-benzamide]
	5.84	3%		O=C(Nc1cnc2ccccc2c1)c1ccc2c(c1)CCN2C(=O)c1ccccc1 [1-Benzoyl-2,3-dihydro-1H-indole-5-carboxylic acid quinolin-3-ylamide]
	7.15		7.89	CC1(C)CCC(C)(C)c2cc(CCC(=O)Nc3cnc4ccccc4c3)ccc21 [N-Quinolin-3-yl-3-(5,5,8,8-tetramethyl-5,6,7,8-tetrahydro-naphthalen-2-yl)-propionamide]
	6.45		6.95	CN(Cc1ccccc1)c1ccc(CCC(=O)Nc2cnc3ccccc3c2)cc1 [3-{4-(Benzyl-methyl-amino)-phenyl}-N-quinolin-3-yl-propionamide]
